Reference: patent US7851503B2, “Thrombopoetin receptor activator and process for producing the same” (Nissan Chemical Industries, Ltd., priority 2002, dated 2010)

Columns and labels:
UT7/EPO cells [1] = experiment: Cell proliferation assay with WST-8 reagent, mother cell line UT7/EPO expressing no TPO receptor; assay type: cell-based, human; details: 4 days incubation, absorbance at 450 nm
Procedure: (§1) Cells subcultured in the same manner as in Assay Example 1(1) were washed twice with PBS and suspended in IMDM containing 10% FBS at a cell density of 6×10^4 cells/ml. The cell suspension was transferred to a 96-well tissue culture plate (CORNING) in 100-μl aliquots. Then, 3-methoxyxanthocillin X dimethyl ether dissolved in DMSO was diluted 83-fold with IMDM containing 10% FBS and added to the aforementioned cell suspension in 20-μl aliquots. The suspension was incubated in a CO2 incubator (5% CO2, 37° C.) for 4 days. Cell proliferation was assayed using WST-8 reagent (Kishida Chemical Co., Ltd.) according to instructions by the manufacturer. A 10-μl aliquot of 5 mM WST-8 reagent solution was added to each well of the tissue culture plate, and the plate was incubated at 37° C. for 4 h. The formazan pigment generated was detected by measuring the absorbance at 450 nm with a 96-well microplate reader (Nihon Molecular Devices, Spectramax 190).

[2] = system: UT7/EPO-mpl cells (expressing human TPO receptor (c-mpl)); experiment: Cell proliferation assay with WST-8 reagent, TPO-dependent cell line UT7/EPO-mpl; assay type: cell-based; details: 4 days incubation, absorbance at 450 nm
Procedure: Stimulation of Proliferation of a Thrombopoietin (TPO)-Dependent Cell Line (2)
The reactivity of a compound of the present invention, 3-methoxyxanthocillin X dimethyl ether, with thrombopoietin (TPO) receptor was assayed using a human leukemic cell line, UT7/EPO-mpl.
as §1

UT7/EPO cells [3] = experiment: Cell proliferation assay by the MTT method, mother cell line UT7/EPO expressing no TPO receptor; assay type: cell-based, human; details: 4 days incubation, absorbance at 550 nm
Procedure: (§2) The reactivity of a compound of the present invention, xanthocillin X monomethyl ether, with thrombopoietin (TPO) receptor was assayed using a human leukemic cell line, UT7/EPO-mpl. UT7/EPO-mpl is a stable transformed cell line obtained by introducing into human leukemic cell line UT7/EPO a vector that induces expression of human TPO receptor (c-mpl) under control of a cytomegaloviral promoter by the method of Takatoku et al. (J. Biol. Chem., 272:7259-7263 (1997)). […] These two cell lines were subcultured in IMDM (GIBCO) containing 10% fetal bovine serum (FBS; TRACE SCIENTIFIC) using a CO2 incubator (5% CO2, 37° C.).
(§3) The subcultured cells described above were washed twice with PBS and suspended in IMDM containing 10% FBS at a cell density of 6×10^4 cells/ml. The cell suspension was transferred to a 96-well tissue culture plate (CORNING) in 100-μl aliquots. Then, xanthocillin X monomethyl ether dissolved in DMSO was diluted 83-fold with IMDM containing 10% FBS and added to the aforementioned cell suspension in 20-μl aliquots. The suspension was incubated in a CO2 incubator (5% CO2, 37° C.) for 4 days. […] The formazan pigment generated was dissolved by adding 150 μl per well of 0.1 M/L HCl/isopropanol solution and the absorbance of the resulting pigment solution was measured at 550 nm with a 96-well microplate reader (BIO-RAD, M450).

[4] = system: UT7/EPO-mpl cells (expressing human TPO receptor (c-mpl)); experiment: Cell proliferation assay by the MTT method, TPO-dependent cell line UT7/EPO-mpl; assay type: cell-based; details: 4 days incubation, absorbance at 550 nm
Procedure: Stimulation of Proliferation of a Thrombopoietin (TPO)-Dependent Cell Line (1)
as §2
as §3, with “aliquots.” for “aliquots. The suspension was incubated in a CO2 incubator (5% CO2, 37° C.) for 4 days.”

SMILES	effect on proliferation of UT7/EPO, the mother cell line (WST assay, FIG. 4) (UT7/EPO cells [1])	proliferation of TPO-responsive UT7/EPO-mpl cells (WST assay, FIG. 3) [2]	effect on proliferation of UT7/EPO, the mother cell line (MTT assay, FIG. 2) (UT7/EPO cells [3])	proliferation of TPO-responsive UT7/EPO-mpl cells (MTT assay, FIG. 1) [4]
[C-]#[N+]C(=Cc1ccc(OC)cc1)C(=Cc1ccc(OC)c(OC)c1)[N+]#[C-] [3-methoxyxanthocillin X dimethyl ether]	no effect	stimulated		
[C-]#[N+]C(=C\c1ccc(O)cc1)/C(=C/c1ccc(OC)cc1)[N+]#[C-] [xanthocillin X monomethyl ether]			no effect	stimulated
